Reference: PMC9594040, “Structure-Based Discovery of Negative Allosteric Modulators of the Metabotropic Glutamate Receptor 5” (ACS Chemical Biology, 2022)

target: human mGlu5 (Homo sapiens, UniProt P41594); assay: Radioligand displacement assay (radiolabeled MPEP) on membranes of HEK293 cells stably expressing mGlu5; details: Ki, radioligand displacement; mean ± SEM of two experiments
Sequence (P41594 21-1212): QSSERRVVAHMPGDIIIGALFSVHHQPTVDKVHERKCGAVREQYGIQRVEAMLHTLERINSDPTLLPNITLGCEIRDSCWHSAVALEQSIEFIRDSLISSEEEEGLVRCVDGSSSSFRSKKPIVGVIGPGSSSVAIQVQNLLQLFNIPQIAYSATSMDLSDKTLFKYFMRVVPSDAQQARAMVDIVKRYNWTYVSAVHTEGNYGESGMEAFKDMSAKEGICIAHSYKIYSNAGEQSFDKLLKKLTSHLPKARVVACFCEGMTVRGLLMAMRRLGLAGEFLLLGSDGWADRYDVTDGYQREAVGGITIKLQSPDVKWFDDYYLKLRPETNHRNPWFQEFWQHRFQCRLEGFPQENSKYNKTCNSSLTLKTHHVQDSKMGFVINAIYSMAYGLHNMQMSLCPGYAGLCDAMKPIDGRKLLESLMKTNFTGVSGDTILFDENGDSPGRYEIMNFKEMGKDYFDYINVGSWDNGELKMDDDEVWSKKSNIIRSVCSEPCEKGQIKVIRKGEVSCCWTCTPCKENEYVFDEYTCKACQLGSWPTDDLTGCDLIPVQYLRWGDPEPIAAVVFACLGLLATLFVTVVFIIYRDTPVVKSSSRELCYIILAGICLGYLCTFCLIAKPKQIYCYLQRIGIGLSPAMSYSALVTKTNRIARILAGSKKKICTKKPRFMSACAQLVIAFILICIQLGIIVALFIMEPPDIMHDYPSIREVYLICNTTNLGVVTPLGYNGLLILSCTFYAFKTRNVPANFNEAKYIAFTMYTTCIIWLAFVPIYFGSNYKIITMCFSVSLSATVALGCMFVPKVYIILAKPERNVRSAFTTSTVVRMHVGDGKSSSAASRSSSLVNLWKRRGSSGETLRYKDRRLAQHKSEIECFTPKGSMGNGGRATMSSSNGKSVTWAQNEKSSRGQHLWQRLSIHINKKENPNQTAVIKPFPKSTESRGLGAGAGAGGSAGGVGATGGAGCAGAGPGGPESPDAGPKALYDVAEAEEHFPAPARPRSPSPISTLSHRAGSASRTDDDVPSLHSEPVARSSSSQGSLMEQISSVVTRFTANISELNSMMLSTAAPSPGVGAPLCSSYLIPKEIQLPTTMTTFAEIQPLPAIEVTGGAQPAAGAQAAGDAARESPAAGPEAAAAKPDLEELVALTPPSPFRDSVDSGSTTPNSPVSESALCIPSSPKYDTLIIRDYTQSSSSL
Protocol: Treated cells were harvested with PBS/2 mM EDTA and washed three times with ice-cold PBS and frozen at −80 °C. The frozen cell pellet was resuspended in membrane buffer (25 mM Tris/7.4, 250 mM sucrose, 2.5 mM EDTA, 2 ug/ml aprotinin, 0.5 ug/ml leupeptin and 200 nM PMSF) and homogenized with a polytron 20–30 s at maximum power. After centrifugation at 18,000 RPM for 30 min at 4 °C, the pellet was resuspended in ice-cold membrane buffer, hand-homogenized, and centrifuged as described above. This pellet was further resuspended in ice-cold membrane buffer. The protein content was measured using the Bradford method with bovine serum albumin as the standard. The membrane homogenate was frozen at −80 °C before use. After thawing, the membranes were washed once and resuspended in ice-cold 50 mM Tris–HCl, 0.9% NaCl, pH 7.4 buffer. All incubations were performed at room temperature. For the displacement binding experiments, 15 μg of membranes were incubated with 5 nM the radioligand in the presence of 10 varying concentrations of the test compound for 2 h at room temperature with shaking. At the end of the respective incubations, the suspension was filtered onto PerkinElmer GF/C glass fiber filters (1450–421) pre-soaked in 0.5% polyethyleneimine and washed rapidly four times using a Tomtec Harvester 96 Mach III cell harvester (Tomtec, Hamden, CT) with 5 mL of cold wash buffer (50 mM Tris–HCl, pH 7.4). The radioactivity trapped on the filters was measured after heat sealing the filters with MeltiLexTM A (PerkinElmer, 1450–441) in a 1450 MicroBeta TriLux counter (PerkinElmer). […] IC50 values were derived from the inhibition curve, and Ki values were calculated according to the Cheng-Prusoff equation of Ki = IC50/(1 + [L]/Kd),[61] where [L] is the concentration of radioligand and Kd is its dissociation constant at the receptor, derived from the saturation isotherm.

SMILES | Ki [µM]
N#Cc1ccc(NCC#Cc2ccccc2)cc1 [F3] | 3.4 ± 0.2
N#Cc1cccc(COc2ccccc2F)c1 [F4] | 8.6 ± 0.1

Next, values leading:

Ki [µM] | SMILES
3.6 ± 0.1 | COc1ccc(Cn2cccc2-c2nc(-c3ccncc3)no2)cc1 [L3]
4 ± 0.5 | CN(Cc1cnn(-c2ccccc2)c1)c1noc(-c2ccccc2)n1 [L4]
4.3 ± 0.9 | CC(c1nc(-c2ccco2)no1)n1nnc(-c2cccc(F)c2)n1 (centres unmarked) [L5]
7.3 ± 1.3 | Cc1nc(-c2ccccc2)sc1C(C)N(C)C(=O)c1cnns1 (centres unmarked) [L6]
7.9 ± 0.6 | CN(Cc1cnn(-c2ccc(F)cc2)c1)c1nc(-c2ccccc2)no1 [L7]

same assay, conditions: Table S1; radioligand displacement at 30 µM; mean ± SEM of two experiments

SMILES | Inhibition at 30 µM [%]
Cc1cccc(NC(=O)Cc2ccc(O)cc2)c1 [F5] | 42 ± 5
CCOc1cccc(CNC(=O)C2CC=CC2)c1 [F7] | 39 ± 7
CC(=O)c1cccc(NCc2ccccc2)c1 [F9] | 38 ± 1
Cc1ccc(C(C)NC(=O)c2ccc(F)cc2)o1 (centres unmarked) [F10] | 35 ± 8
N#Cc1ccc(OC/C=C/c2ccccc2)nc1 [F11] | 35 ± 6
COCc1cccc(Nc2cc(Cl)ncn2)c1 [F12] | 35 ± 10
C=CCNC(=O)c1ccc(Oc2ccccc2)o1 [F13] | 35 ± 10
Cc1cc(CN(C)C(=O)Nc2ccccc2)on1 [F14] | 33 ± 4
CC1CC1C(=O)N(C)CCOc1ccccc1 (centres unmarked) [F15] | 33 ± 9
CC(C)c1nccn1Cc1nc2ccccc2[nH]1 [F16] | 33 ± 5
c1ccc(-n2cc(CCn3cnnc3)cn2)cc1 [F17] | 33 ± 3
Cc1ccccc1CNc1ccc(F)c(C#N)c1 [F18] | 33 ± 9
COCc1cccc(Nc2ccnc(C#N)c2)c1 [F19] | 32 ± 4
Cn1ccnc1SCC=Cc1ccccc1 [F20] | 31 ± 1
CC(c1nc(-c2ccccc2)no1)n1ccnc1 (centres unmarked) [F21] | 31 ± 1
CN(Cc1cn2ccccc2n1)c1ccccc1 [F22] | 31 ± 1
Cc1ccoc1-c1nc(Cc2ccccc2)n[nH]1 [F23] | 30 ± 7
CCn1cnnc1CNC(=O)c1cccc(C)c1 [F24] | 30 ± 1
COc1ccc(CNC(=O)c2csnn2)cc1 [F25] | 28 ± 9
OCc1cccc(NCc2cccc(Cl)c2)c1 [F26] | 28 ± 15
CC(O)c1cccc(OCc2ccccc2)c1 (centres unmarked) [F27] | 27 ± 3
Oc1ccccc1-c1n[nH]c(-c2ccncc2)n1 [F28] | 27 ± 3
CCN(CC(O)c1ccccc1)c1ccccc1 (centres unmarked) [F29] | 27 ± 1
N#Cc1ccnc(Nc2ccc3c(c2)OCO3)c1 [F30] | 27 ± 3
CN(C)C(=O)c1cc(OCc2ccccc2)no1 [F32] | 27 ± 1
Cc1ccccc1NC(=O)c1ccnc(Cl)c1 [F33] | 26 ± 11

SMILES | Inhibition at 30 µM [%]
O=C(Nc1ccccc1F)OCc1cccnc1 [F34] | 26 ± 4
OC(c1ccccc1)c1nc2cc(F)ccc2[nH]1 (centres unmarked) [F35] | 25 ± 12
O=C(NCc1ccncc1)c1cccc(Cl)c1 [F36] | 25 ± 3
O=C(CNC(=O)c1ccco1)Nc1ccccc1 [F37] | 25 ± 4
c1ccc(Cn2nnc(-c3ccncc3)n2)cc1 [F38] | 25 ± 3
Cc1cccc(C(=O)NC(C)c2ccncc2)n1 (centres unmarked) [F39] | 24 ± 9
CC[C@H](Nc1cnn(CC)c1)c1ccc(C)cc1 [F40] | 24 ± 7
Clc1ncnc2cc(-c3ccccc3)[nH]c12 [F41] | 24 ± 2
COc1ccc(CNC(=O)c2ccncc2)cc1 [F42] | 24 ± 8
c1ccc(-c2nsc(-n3ccnc3)n2)cc1 [F43] | 23 ± 2
C#Cc1cccc(NC(C)c2ccccc2)c1 (centres unmarked) [F44] | 23 ± 4
CC(C)C(=O)N(C)Cc1nc2ccccc2[nH]1 [F45] | 22 ± 9
CC[C@@H]1CCCC(C(=O)Nc2ccccc2)=C1O [F46] | 22 ± 1
CC(O)c1ccc(OCc2ccc(F)cc2)cc1 (centres unmarked) [F47] | 21 ± 3
CN(CCc1ccccn1)c1ccc(Cl)nn1 [F48] | 21 ± 1
C=CCN1CC(c2nc3ccccc3[nH]2)CC1=O (centres unmarked) [F49] | 20 ± 1
CC(=O)c1nc(Nc2ccccc2)sc1C [F50] | 20 ± 9
Nc1ccccc1Sc1nc2ccccc2[nH]1 [F51] | 20 ± 14
CCC(NC(=O)c1ccccn1)c1ccccc1 (centres unmarked) [F52] | 19 ± 5
Cc1cc(Cn2ccc(-c3ccccc3)n2)on1 [F53] | 19 ± 2
Fc1ccc(F)c(NCCCn2ccnc2)c1 [F55] | 19 ± 5
Clc1cccc(OCCCn2ccnc2)c1 [F56] | 18 ± 4
COCc1ccc(CNc2ncccc2F)cc1 [F57] | 17 ± 3
Cc1cccn2cc(Cn3ccccc3=O)nc12 [F58] | 16 ± 5
Nc1ccccc1-c1nc2cc(F)c(F)cc2[nH]1 [F59] | 9 ± 1

Next, values leading:

Inhibition at 30 µM [%] | SMILES
41 ± 7 | N#Cc1cc(CNc2ccn(-c3ncccc3Cl)n2)ccc1F [L10]
40 ± 4 | O=C(NCc1ccc(N2CCCC2)nc1)c1cnn(-c2ccccc2)c1 [L11]
39 ± 6 | O=C(NCc1ccc(-n2cccn2)cc1)c1cc2ccccc2s1 [L12]
38 ± 12 | CC1CN(C(=O)Nc2cccc(C#N)c2)CC(c2ccccc2)O1 (centres unmarked) [L14]
37 ± 6 | Cc1noc(CCC(=O)N2CCC(CSc3ccccc3)C2)n1 (centres unmarked) [L15]
36 ± 1 | O=C(Nc1cccc(OCc2ccccn2)c1)c1cccc(F)c1 [L16]
35 ± 3 | CSc1ccc(C(=O)N(C)Cc2nc3ccccc3[nH]2)o1 [L17]
34 ± 1 | O=C(NCc1cc(-c2ccco2)on1)c1cccc(Cl)c1 [L18]
34 ± 3 | O=C(NCc1ccccc1)c1csc(COc2ccc(F)cc2)n1 [L19]
34 ± 5 | CN(Cc1cnn(-c2ccccc2)c1)C(=O)c1cc(-c2ccco2)on1 [L20]
33 ± 12 | O=C(CSc1n[nH]c(-c2cccnc2)n1)Nc1cccc(Cl)c1 [L21]
32 ± 1 | O=C(Nc1cccc(F)c1)C1CCN(c2ccc(F)cc2)C1=O (centres unmarked) [L23]
32 ± 3 | O=C(CCc1cccnc1)N1CCCC(COc2cccc(F)c2)C1 (centres unmarked) [L24]
31 ± 7 | Cc1ccc(C2CC2c2nc(CNC(=O)c3ccccc3)no2)s1 (centres unmarked) [L26]
31 ± 7 | O=C(NCc1cccnc1)c1ccc(COc2ccccc2)o1 [L27]
30 ± 9 | O=C(NCc1ccnc(-n2cccn2)c1)c1ccc(Br)o1 [L29]
30 ± 5 | Cc1ccc(Cn2ccnc2C(=O)Nc2ccccc2)cc1 [L30]
29 ± 4 | Cc1ccc(Cn2cccc2-c2nc(-c3ccncc3)no2)cc1 [L31]
29 ± 3 | O=C(CCc1ccncc1)N1CC(n2cc(-c3ccccc3)nn2)C1 [L32]
29 ± 1 | CCCn1cc(C(=O)Nc2cccc(NC(=O)c3ccncc3)c2)cn1 [L34]
29 ± 8 | c1ccc(Cc2n[nH]c(-c3ccncc3)n2)cc1 [L36]
29 ± 4 | CCc1noc(COc2cccc(NC(=O)c3ccccc3)c2)n1 [L37]

Inhibition at 30 µM [%] | SMILES
27 ± 1 | O=C(Nc1ccccn1)c1cc2occc2n1Cc1ccccc1 [L38]
27 ± 11 | O=C(CSc1ccc(-n2cccn2)nn1)Nc1ccccc1Cl [L39]
27 ± 3 | CN(Cc1cc(-c2ccccc2)no1)C(=O)CCOc1ccccc1 [L40]
26 ± 2 | CC(NC(=O)COc1ccc(Cl)cc1)C(=O)Nc1ccccc1 (centres unmarked) [L41]
26 ± 5 | Cc1ccc(F)c(NC(=O)C2CC(=O)N(CCc3ccccc3)C2)c1 (centres unmarked) [L42]
26 ± 12 | c1ccc(OCc2noc(NCc3nc4ccccc4s3)n2)cc1 [L43]
26 ± 13 | Cc1cccc(-c2c[nH]c(C3CCCN3C(=O)c3ccccn3)n2)c1 (centres unmarked) [L44]
25 ± 7 | O=C(COc1ccccc1)Nc1cccc(NC(=O)c2ccncc2)c1 [L45]
24 ± 3 | O=C(NCc1ccnc(OCc2ccccc2)c1)c1cccc(F)c1 [L46]
24 ± 3 | CCCOc1ccc(N2CC(C(=O)Nc3ccccn3)CC2=O)cc1 (centres unmarked) [L47]
23 ± 4 | Cc1csc(CNC(=O)N2CCC(COCc3ccccc3)C2)n1 (centres unmarked) [L48]
22 ± 1 | O=C(c1ccc(Cl)s1)N1CC(c2nc(-c3ccncc3)no2)C1 [L49]
20 ± 1 | O=C(COc1ccccc1)NCc1cc(-c2ccc(F)cc2)on1 [L50]
20 ± 6 | Cc1ccc(C(=O)Nc2cccc(NC(=O)c3ccncc3)c2)s1 [L51]
20 ± 1 | CCN(Cc1nc(-c2ccncc2)no1)c1ccccc1 [L52]
19 ± 2 | CC(NC(=O)c1cccc(F)c1)c1ccc(-n2cncn2)cc1 (centres unmarked) [L53]
18 ± 3 | Cc1ccc(CNC(=O)c2ccn(COc3ccc(F)cc3)n2)o1 [L54]
18 ± 3 | O=C(CSc1ccccc1)N1CC(OCc2cccc(F)c2)C1 [L55]
18 ± 6 | O=C(Nc1ccc(F)c(F)c1)C1(c2cc(-c3ccco3)on2)CC1 [L56]
17 ± 2 | O=C(COc1ccc2ccccc2c1)N1CC(c2nc(C3CC3)no2)C1 [L57]
16 ± 2 | CCOc1ccc(C(=O)N2CC(OCc3ccc(F)cc3)C2)cc1 [L58]
15 ± 1 | Cc1ccc(OCC(=O)N2CC(c3nc(-c4ccco4)no3)C2)cc1 [L59]

same assay, conditions: Table S1; radioligand displacement; mean ± SEM of two experiments

Ki [µM] | SMILES
11 ± 1 | CC(CCOc1ccccc1)c1nc(-c2ccc(C#N)cn2)no1 (centres unmarked) [L8]

same assay, conditions: radioligand displacement; mean ± SEM of two experiments

Ki [µM] | SMILES
16 | O=C(Nc1cccc(Cn2ccnc2)c1)c1cccc(F)c1 [L9]
